Source: publication PMC9013686, “Inter-individual variation in chlorpyrifos toxicokinetics characterized by physiologically based kinetic (PBK) and Monte Carlo simulation comparing human liver microsome and Supersome™ cytochromes P450 (CYP)-specific kinetic data as model input” (Archives of Toxicology, 2022)

What was measured:
CYP3A4 in pooled HLMs = molecular target: T1, CYP3A4 in pooled HLMs (Homo sapiens, UniProt P08684); assay: Pooled HLM incubation with CYP3A4 probe substrate (ISEF determination); assay type: in vitro ADME; settings: 6β-hydroxytestosterone formation
T1 construct: the native CYPs present in HLM; tissue Corning (Amsterdam, The Netherlands); host or cells: pooled human liver microsomes, 150 donors, mixed gender
T1 sequence (P08684 2-503): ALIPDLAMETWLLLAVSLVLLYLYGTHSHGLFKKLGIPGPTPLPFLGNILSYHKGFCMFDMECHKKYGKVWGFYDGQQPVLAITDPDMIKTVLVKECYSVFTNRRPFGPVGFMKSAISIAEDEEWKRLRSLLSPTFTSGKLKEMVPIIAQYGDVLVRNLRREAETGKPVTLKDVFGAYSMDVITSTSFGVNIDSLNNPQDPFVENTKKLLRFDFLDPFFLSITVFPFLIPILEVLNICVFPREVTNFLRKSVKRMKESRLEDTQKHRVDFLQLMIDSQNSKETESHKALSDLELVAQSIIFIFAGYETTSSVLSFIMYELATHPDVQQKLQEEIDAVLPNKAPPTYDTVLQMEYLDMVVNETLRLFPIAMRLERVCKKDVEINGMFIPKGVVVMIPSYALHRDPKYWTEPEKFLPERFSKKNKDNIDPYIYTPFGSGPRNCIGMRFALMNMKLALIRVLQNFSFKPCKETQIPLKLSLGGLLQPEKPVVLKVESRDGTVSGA
Description: (§1) To normalize for differences in intrinsic CYP activity between Supersome™ and pooled HLMs and enable scaling of the activities to the in vivo situation, CYP-specific ISEF values need to be established. […] The incubation method was similar as used for the CPF kinetic incubation assay described above, except that certain incubation conditions were replaced by the conditions listed in Table 1. The samples obtained were analyzed by UPLC-PDA for acetaminophen, 4-hydroxymephenytoin, and 6β-hydroxytestosterone formation catalyzed by 1A2, 2C19 and 3A4, or LC–MS/MS for (±)-hydroxybupropion formation catalyzed by 2B6.
As mentioned before, the in vitro apparent kinetic parameters (Vmax and Km) for pathway 1 and pathway 2 in the HLM-based approach, and pathway 3 in both approaches were all obtained directly from reported studies using pooled HLMs (Buratti et al. [2003]; Sams et al. [2004]; Zhao et al. [2019]). Therefore, no extra calculations were required to define these parameters. […] It should be noted that the kinetic parameters for pathway 4 used in the two approaches were calculated as mean of the kinetic parameters (Vmax and Km) obtained using 25 individual HP samples (with correction for total protein concentration of each plasma sample).

CYP3A4 = CYP3A4 (Homo sapiens, UniProt P08684); assay: Supersome CYP3A4 kinetic incubations; assay type: in vitro ADME; design: purchased Corning (Amsterdam, The Netherlands); host or cells: baculovirus-transfected insect cells
CYP3A4, sequence (P08684 2-503 limits assumed): as the sequence (P08684 2-503) above
Description: The final incubations were carried out in 50 mM Tris–HCl (pH 7.4) containing 5 mM MgCl2, 1 mM EDTA (as an A-esterase PON1 inhibitor) (Bizoń and Milnerowicz [2018]), 50 µM iso-OMPA (as a B-esterases inhibitor) (Lane et al. [2006]), Supersome™ isoform (at final concentration of 0.005 nmol CYP/ml for 1A2, 0.001 nmol CYP/ml for 2B6, 0.01 nmol CYP/ml for 2C19, and 0.01 nmol CYP/ml for 3A4) and CPF at different final concentrations (0.05, 0.1, 0.25, 0.5, 1, 5 and 10 µM for 1A2, 0.05, 0.1, 0.25, 0.5, 1, 5 10 and 25 µM for 2B6, 1, 2.5, 5, 10, 25 and 50 µM for 2C19, and 0.5, 1, 2.5, 5, 10, 25 and 50 µM for 3A4), which were added from 100 times concentrated stock solutions in ACN. After 1 min preincubation in a 37 °C water bath, 5 µl NADPH (final concentration 1 mM) was added to the incubation system. Control incubations were performed by replacing NADPH with the same amount of Tris–HCl (pH 7.4). The total volume of the incubation mixtures was 200 µl. The incubations lasted for 2 min at 37 °C and were terminated by addition of 50 µl ice cold ACN and subsquently put on ice. After that, samples were centrifuged at 16,000 g (4 ℃) for 5 min and supernatants of samples were separated into two equal portions for Ultra-Performance Liquid Chromatography-Photodiode Array (UPLC-PDA) and Liquid Chromatography Mass Spectrometry (LC–MS/MS) analysis, respectively.
as §1
As mentioned before, the in vitro apparent kinetic parameters (Vmax and Km) for pathway 1 and pathway 2 in the HLM-based approach, and pathway 3 in both approaches were all obtained directly from reported studies using pooled HLMs (Buratti et al. [2003]; Sams et al. [2004]; Zhao et al. [2019]). Therefore, no extra calculations were required to define these parameters. The kinetic parameters for the ISEF calculation, pathway 1 and 2 in the Supersome™-based approach, and pathway 4 in both approaches (25 individuals) were all obtained by fitting the experimental data to the Michaelis–Menten model using GraphPad (GraphPad Prism 5.0 software, San Diego, CA, USA). It should be noted that the kinetic parameters for pathway 4 used in the two approaches were calculated as mean of the kinetic parameters (Vmax and Km) obtained using 25 individual HP samples (with correction for total protein concentration of each plasma sample).
The in vivo Kmi values were assumed to be equal to the apparent Kmi(app) values (µM) obtained in the in vitro incubations, while the in vivo Vmaxi for each CYP isoform was derived from their corresponding apparent CYP isoform Vmaxi(app) (pmol/min/pmolCYP) using Eq. 3:3 Vmaxi=Vmaxiapp×CYPiabundance×ISEF×60×MPL×1000×VL/1,000,000,

SMILES: C[C@]12CC[C@H]3[C@@H](CCC4=CC(=O)CC[C@@]43C)[C@@H]1CC[C@@H]2O [Testosterone, testosterone, reference compound]
- Vmax (pooled HLMs) (CYP3A4 in pooled HLMs): 17.29 nmol/min/mg microsomal protein
- Vmax (Supersome) (CYP3A4; 6β-hydroxytestosterone formation, Supersome CYP3A4): 1179 pmol/min/pmol CYP
- ISEF (CYP3A4; CYP3A4, calculated on the basis of Eq. 4 from probe substrate Vmax in pooled HLMs and Supersome): 0.11
